Columns and labels:
WBC, LSK and SLAM HSC [1] = test: Mobilization protocols in Cd40Ig^−/− mice (PB and BM counts); assay type: in vivo
Source text: To investigate the therapeutic potential of M-HSCT, we took advantage of Cd40Ig^−/− mice, which faithfully recapitulate the phenotype of the human primary combined immunodeficiency Hyper IgM Syndrome 1 (HIGM-1; Renshaw, B. R., et al. (1994). J Exp Medicine 180, 1889-1900). Because G-CSF treatment may have a detrimental effect on the BM niche, we investigated the efficiency of mobilization protocols differing for its presence or absence, the G-CSF dose and the duration and combination with other drugs (FIG. 2A).
(§1) Blood samples were also analysed with the hemocytometer Sysmex KX-21N (Block scientific, Sysmex corporation) to quantify absolute numbers.
Different protocols were tested in Cd40Ig^−/− mice: (i) s.c. pump delivering 250 μg/kg/day of G-CSF for 7 days (G7); (ii) s.c. pump delivering 250 μg/kg/day of G-CSF for 7 days, with i.p. injections of AMD3100 (5 mg/kg/day) on day 6 and 7 (G7A); (iii) s.c. pump delivering 250 μg/kg/day of G-CSF for 7 days, with i.p. injections of AMD3100 (5 mg/kg/day) and BIO5192 (1 mg/kg/day) on day 6 and 7 (G7AB); (iv) s.c. pump delivering 125 μg/kg/day of G-CSF for 7 days, with i.p. injections of AMD3100 (5 mg/kg/day) and BIO5192 (1 mg/kg/day) on day 6 and 7 (G7AB-H); (v) G-CSF delivered by i.p. injections (125 μg/kg) every 12 hours for four days, with AMD3100 s.c. injections (5 mg/kg) 14 hours after the last dose of G-CSF (G5A); (vi) G-CSF delivered by i.p. injections (125 μg/kg) every 12 hours for four days, with AMD3100 (5 mg/kg) and BIO5192 (1 mg/kg) s.c. injections 14 hours after the last dose of G-CSF (G5AB); (vii) s.c. pump delivering 250 μg/kg/day of G-CSF for 3 days, with i.p. injections of AMD3100 (5 mg/kg/day) and BIO5192 (1 mg/kg/day) on day 6 and 7 (G3AB); (viii) s.c. pump delivering 125 μg/kg/day of G-CSF for 3 days, with i.p. injections of AMD3100 (5 mg/kg/day) and BIO5192 (1 mg/kg/day) on day 6 and 7 (G3AB-H); and (ix) AMD3100 (5 mg/kg/day) and BIO5192 (1 mg/kg/day) i.p. injected for three days.
Bone marrow vacancy and estimated chimerism were calculated based on the following formulas in Cd40Ig^−/− mice (summarized in table below): • To determine the total number of SLAM HSC per mouse at steady state (FIG. 2G, left panel), lower limbs (which account for 20% of the total BM) were collected in a defined volume and counted, paralleled with their characterization through FACS. We found 2500 SLAM HSC/lower limbs, therefore reaching a total of 12,500 SLAM HSC/mouse (2500*100/20). This number is in accordance with other published papers (Chen, J., et al. (2008). Experimental hematology, 36(10), 1236-1243; Karpova, D., et al. (2017). Blood, 129(21), 2939-2949; and Singh, P., et al. (2020). Stem cells (Dayton, Ohio), 38(7), 849-859). • To determine the total number of SLAM HSC that egressed from the BM post-G7AB mobilization, we examined the BM of mobilized mice. 1100 SLAM HSC were recovered in the lower limbs, reaching a total of 5500 SLAM HSC in the BM of mobilized mice. Therefore, to determine the number of SLAM HSC egressed, the number of SLAM HSC present post-mobilization was subtracted from the total number of SLAM HSC present in the steady state mouse, leading to an assessment of 7000 SLAM HSC egressing from the BM (12500-5500). • The mobilized SLAM HSC/mL was calculated based on the bleeding performed at the peak of mobilization in mobilized mice (FIG. 2G, right panel). The blood was analyzed through hematocytometer (WBC/mL) and FACS staining (% subpopulation). […]

[2] = test system: GFP+ cells within the hCD45+ population; test: M-HSCT in hematochimeric mice with drug-resistant CXCR4 variant; AMD3465 protocol; assay type: in vivo, NSGW41 or NBSGW mice
Source text: FIG. 12. […] NSGW41 or NBSGW mice were humanized with human mobilized peripheral blood CD34+ cells until 10% chimerism was achieved. Mice were then mobilized with G-CSF for 7 days through subcutaneous pump implantations and with two injections of AMD3100 and BIO5192 at day 6 and 7. For the second transplant, GFP lentiviral vector-transduced cells from the same donor used to humanize the mice were electroporated with either CXCR4 wild type or CXCR4^D262N variant. The donor cells were then transplanted either at 3 h or immediately after the last injection of AMD3100. • (B) Human chimerism over time after mobilization, expressed as % of human CD45+ cells present in peripheral blood (right panel), and exchange efficiency (left panel) expressed as % of GFP+ cells within the hCD45+ population. CXCR4 Var=CXCR4 D262N. • (C) Mobilization efficiency of the standard protocol (G7AB) or the modified protocol with AMD3465 (G7AB*) measured as white blood cell count (WBC, left panel), and human CD34+CD38− cells (right panel). • (D) Human chimerism over time after mobilization, expressed as % of hCD45+ cells in peripheral blood (right panel), and exchange efficiency (left panel) expressed as % of GFP+ cells within the hCD45+ population. […]

CD45.1 Lin^− donor cells = test: M-HSCT: donor CD45.1 chimerism after mobilization of CD45.2 recipients; assay type: in vivo, C57BL/6J CD45.2 mice; conditions: addition of BIO5192 to the G-CSF/AMD3100 protocol (G7AB); 2×10^6 CD45.1 Lin^− cells; PB
Source text: To test if these levels of mobilization, and the subsequent BM niche availability, were sufficient to allow engraftment of donor cells, 2×10^6 CD45.1 lineage negative (Lin^−) cells, purified from the BM, were transplanted into CD45.2 congenic recipients after the last injection of AMD3100 or AMD3100/BIO5192 (FIG. 1A, C; FIG. 6D).
Donor mice between 6 and 10 weeks of age were euthanized by CO2, and BM cells were retrieved from femurs, tibias, and humeri. HSPCs were purified by Lin− selection using the mouse Lineage Cell Depletion Kit (Miltenyi Biotec) according to the manufacturer's instructions. Cells were then cultured (for 2 hours or overnight) in serum-free StemSpan medium (StemCell Technologies) containing penicillin, streptomycin, glutamine, and a combination of mouse cytokines (20 ng/ml IL-3, 100 ng/ml SCF, 100 ng/ml Flt-3L, 50 ng/ml TPO all from PeproTech), at a concentration of 2-5×10^6 cells.ml^−1. Purified Lin^− cells were transplanted at a total dose of 2×10^6 cells/mouse into 8 to 12-week-old mobilized mice, three hours after the last injection of AMD3100 and/or Bio5192. Serial collections of blood from the retro-orbital vein were performed to monitor the hematological parameters and donor cell engraftment. At the end of the experiment, BM, thymus and spleen, and lymph nodes were harvested and analyzed.

WBC, LSK and SLAM HSC [3] = test: Mobilization of WBC, LSK and SLAM HSC into the circulation of C57BL/6J CD45.2 mice; assay type: in vivo; conditions: addition of BIO5192 to G7A (G7AB)
Experimental: We tested two mobilization regimens in mice, one modeling a clinically approved protocol using G-CSF and AMD3100 (G7A), and the other one also comprising BIO5192 (G7AB). C57BL/6J CD45.2 mice were treated with G-CSF using a subcutaneous pump for a week combined with either AMD3100, or the combination of AMD3100 and BIO5192, delivered intraperitoneally at day 6 and 7 (FIG. 1A; FIG. 6B).
The addition of BIO5192 led to a higher mobilization of WBC, LSK and SLAM HSC, leading to an additional 2-fold increase of SLAM HSC over G7A levels.
as §1

VLA-4 = VLA-4 (Homo sapiens, UniProt P05556+P13612); conditions: VLA-4 versus α4β7 integrin; Ramirez et al. 2009; cited from earlier work
VLA-4, sequence (P13612 34-1032): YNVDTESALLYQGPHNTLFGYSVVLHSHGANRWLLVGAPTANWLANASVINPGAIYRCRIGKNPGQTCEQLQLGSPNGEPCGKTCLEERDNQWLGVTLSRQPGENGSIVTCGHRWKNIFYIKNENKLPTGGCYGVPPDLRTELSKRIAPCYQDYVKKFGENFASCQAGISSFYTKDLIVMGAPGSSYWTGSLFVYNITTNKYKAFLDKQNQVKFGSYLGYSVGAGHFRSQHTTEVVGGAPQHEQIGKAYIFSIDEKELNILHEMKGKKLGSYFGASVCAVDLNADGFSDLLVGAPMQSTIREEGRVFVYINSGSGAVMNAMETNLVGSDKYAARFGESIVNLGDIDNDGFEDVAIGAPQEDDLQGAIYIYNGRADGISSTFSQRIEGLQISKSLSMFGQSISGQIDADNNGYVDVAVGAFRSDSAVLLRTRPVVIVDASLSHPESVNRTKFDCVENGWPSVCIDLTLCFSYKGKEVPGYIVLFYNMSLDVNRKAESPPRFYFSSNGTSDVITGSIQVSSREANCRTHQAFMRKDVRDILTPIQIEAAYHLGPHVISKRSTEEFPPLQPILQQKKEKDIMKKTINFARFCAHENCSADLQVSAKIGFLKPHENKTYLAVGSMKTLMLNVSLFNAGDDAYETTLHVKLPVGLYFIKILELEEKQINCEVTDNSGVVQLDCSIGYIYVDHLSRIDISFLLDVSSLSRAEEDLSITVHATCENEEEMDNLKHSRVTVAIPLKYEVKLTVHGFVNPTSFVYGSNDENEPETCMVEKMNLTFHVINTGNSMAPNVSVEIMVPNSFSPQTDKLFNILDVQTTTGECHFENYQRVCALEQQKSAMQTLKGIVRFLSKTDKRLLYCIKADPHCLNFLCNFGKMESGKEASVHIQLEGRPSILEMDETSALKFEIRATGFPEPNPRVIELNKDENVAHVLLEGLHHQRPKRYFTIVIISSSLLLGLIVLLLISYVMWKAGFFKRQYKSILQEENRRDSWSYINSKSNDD
VLA-4, sequence (P05556 21-798): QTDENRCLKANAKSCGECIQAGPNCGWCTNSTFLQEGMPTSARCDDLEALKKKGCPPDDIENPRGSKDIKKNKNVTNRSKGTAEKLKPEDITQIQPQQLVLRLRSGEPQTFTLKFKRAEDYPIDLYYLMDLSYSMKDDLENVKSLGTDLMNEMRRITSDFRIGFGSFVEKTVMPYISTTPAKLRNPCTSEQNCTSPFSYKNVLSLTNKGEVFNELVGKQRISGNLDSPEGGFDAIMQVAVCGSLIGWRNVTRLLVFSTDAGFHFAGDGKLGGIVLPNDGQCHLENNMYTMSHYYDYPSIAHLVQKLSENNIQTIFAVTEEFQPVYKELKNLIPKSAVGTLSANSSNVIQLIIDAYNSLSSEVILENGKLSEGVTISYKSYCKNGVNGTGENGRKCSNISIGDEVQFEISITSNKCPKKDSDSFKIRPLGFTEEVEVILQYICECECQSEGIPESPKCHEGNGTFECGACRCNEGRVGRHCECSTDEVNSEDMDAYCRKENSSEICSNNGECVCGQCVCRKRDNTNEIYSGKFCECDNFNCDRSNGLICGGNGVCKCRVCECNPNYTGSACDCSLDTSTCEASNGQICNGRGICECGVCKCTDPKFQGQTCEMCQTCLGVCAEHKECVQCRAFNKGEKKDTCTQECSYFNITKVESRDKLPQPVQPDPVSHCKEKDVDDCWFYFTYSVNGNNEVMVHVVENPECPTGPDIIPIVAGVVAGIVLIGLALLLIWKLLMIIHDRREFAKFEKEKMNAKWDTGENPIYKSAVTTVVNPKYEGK

MMP9 = test: ELISA on BM extracellular extracts, MMP9; assay type: in vivo, Cd40Ig^−/− mice
Experimental: (§2) For ELISA performed on BM matrix, femurs and tibias were repeatedly flushed with 1 mL of cold PBS. Cells were pelleted by centrifugation at 300 g for 10 minutes at 4° C., supernatant was then collected and stored at −80° C. ELISA has been performed following manufacturer instruction after a 1:100 dilution with 1× Assay Diluent for MMP9 (Thermo Scientific) or on undiluted BM matrix for CXCL12 (Sigma-Aldrich).

CXCL12 = test: ELISA on BM extracellular extracts, CXCL12; assay type: in vivo, Cd40Ig^−/− mice
Experimental: as §2

c1cc(CN2CCCNCCNCCCNCC2)ccc1CN1CCCNCCNCCCNCC1 [AMD3100, plerixafor]
increase of mobilized LSK (WBC, LSK and SLAM HSC [1]; addition of AMD3100 to the standard G-CSF treatment): 3 fold
time of peak of mobilization of WBC, LSK and SLAM HSC (WBC, LSK and SLAM HSC [1]; post injection, PB analysis): around 3 hours

c1ccc(CNCc2ccc(CN3CCCNCCNCCCNCC3)cc2)nc1 [AMD3465]
exchange efficiency ([2]; AMD3100 or AMD3465, donor cells transplanted at the peak of mobilization): remained unchanged
mobilization efficiency ([2]; AMD3465 compared to AMD3100 in the standard protocol with G-CSF and BIO5192): not affected

Cc1ccccc1NC(=O)Nc1ccc(CC(=O)N(C)[C@@H](CC(C)C)C(=O)NCC[C@H](NC(=O)[C@@H]2CCCN2S(=O)(=O)c2cc(Cl)cc(Cl)c2)C(=O)O)cc1 [BIO5192]
donor chimerism, median (CD45.1 Lin^− donor cells): 30%
additional increase of SLAM HSC over G7A levels (WBC, LSK and SLAM HSC [3]): 2 fold
further increase of mobilized LSK (WBC, LSK and SLAM HSC [1]; BIO5192 added to G-CSF and AMD3100): 5 fold
affinity for VLA-4 higher than for the related α4β7 integrin (VLA-4): 250- to 1000 fold

B1: G-CSF: granulocyte colony-stimulating factor (Lenograstim) delivered by osmotic pump (protein, UniProt P09919 31-207, looked up)
Granulocyte …: TPLGPASSLPQSFLLKCLEQVRKIQGDGAALQEKLVSECATYKLCHPEELVLLGHSLGIPWAPLSSCPSQALQLAGCLSQLHSGLFLYQGLLQALEGISPELGPTLDTLQLDVADFATTIWQQMEELGMAPALQPTQGAMPAFASAFQRRAGGVLVASHLQSFLEVSYRVLRHLAQP
MMP9 in the BM stroma (MMP9): increased
blood neutrophils and monocytes counts (WBC, LSK and SLAM HSC [1]; PB after mobilization protocols): highly increased
level of CXCR4 expression on circulating SLAM HSC (WBC, LSK and SLAM HSC [1]; with versus without G-CSF mobilization): lower
CXCL12 in the BM stroma (CXCL12): decreased

— patent publication US20250281540A1, “Methods for Haematopoietic Stem Cell Transplantation” (Ospedale San Raffaele S.r.l., priority 2022, published 2025)
